This note sets out measurements from patent publication US20110190253A1, “METHOD FOR TREATING TUBERCULOSIS” (priority 2008, published 2011).

Bounds are passed on as bounds.

The test relates to extensively drug-resistant (XDR) clinical strains of M. tuberculosis. The test is described as follows: microbe, parasite or virus in culture. The format is cell-based. The conditions noted are these: for variability of MIC values among strains: thirteen XDR clinical isolates, clavulanate 2.5 μg ml^−1, data not shown.

As for `CC1(C)S[C@@H]2[C@H](NC(=O)[C@H](N)c3ccccc3)C(=O)N2[C@H]1C(=O)O` [ampicillin], the “variability of MIC values among strains” value is “substantial variability”.
Regarding `CC(=O)OCC1=C(C(=O)O)N2C(=O)[C@@H](NC(=O)Cc3cccs3)[C@H]2SC1` [cephalothin], the “variability of MIC values among strains” value is reported as “substantial variability”.
`C[C@@H](O)[C@H]1C(=O)N2C(C(=O)O)=C(S[C@@H]3CN[C@H](C(=O)N(C)C)C3)[C@H](C)[C@H]12` [meropenem]: the MIC (Mycobacterium tuberculosis, read-out: MIC value) is no more than 1 µg/mL.
